What was measured:
[1] = Sensory evaluation of p-cresol odor masking in p-cresol-containing citrus-flavored beverage; settings: for p-Cresol Odor Intensity: beverage with 50 ppb p-cresol, average score of 7 panelists, scale 0-4; for concentration at which the compound masks the p-cresol odor and does not affect the citrus flavor, lower limit / concentration at which the compound masks the p-cresol odor and does not affect the citrus flavor, upper limit: citrus-flavored beverage with 50 ppb p-cresol
Method: To 2 g of lemon flavor obtained by making lemon oil into an essence, purified water was added to adjust the total amount to 1000 ml. To this citrus-flavored beverage, p-cresol adjusted to a concentration of 1% by mass with 95% ethanol was added to 50 ppb in the citrus-flavored beverage. To this p-cresol-containing citrus-flavored beverage, 1-oxacycloheptadecan-7-en-2-one was added at the concentrations presented in Table 1 to confirm the p-cresol odor intensity (masking effect) and the influence on the citrus flavor of each sample.
For the test, seven skilled panelists were selected to perform sensory evaluation. The p-cresol odor intensity of the p-cresol-containing citrus-flavored beverage without added l-oxacycloheptadecan-7-en-2-one was determined as “Rating: 4,” and the p-cresol odor intensity of the p-cresol-free citrus-flavored beverage was determined as “Rating: 0,” and the p-cresol odor intensity (masking effect) of each sample was relatively evaluated according to the following evaluation criteria.
In addition, the influence of the citrus-flavored beverage on the citrus flavor was evaluated absolutely according to the following evaluation criteria for the presence or absence of off- flavor other than p-cresol odor and citrus flavor (Off-Flavor Intensity).
The results are as in Table 1, presenting the average score of the evaluation results for each panelist.

[2] = target: T1, olfactory receptor OR9Q2 (Homo sapiens, UniProt Q8NGE9); assay: OR9Q2 response inhibitory effect for p-cresol, luciferase reporter gene assay; type: cell-based; settings: p-cresol 100 µM mixed with various concentrations of compound; cells expressing OR9Q2; ratio of Fold Increase value (FIGS. 1 to 11)
T1 construct: 20 N-terminal amino acid residues of bovine rhodopsin (Rho tag); expressed in transfected cells; host or cells: HEK293T
T1 sequence (Q8NGE9 1-314): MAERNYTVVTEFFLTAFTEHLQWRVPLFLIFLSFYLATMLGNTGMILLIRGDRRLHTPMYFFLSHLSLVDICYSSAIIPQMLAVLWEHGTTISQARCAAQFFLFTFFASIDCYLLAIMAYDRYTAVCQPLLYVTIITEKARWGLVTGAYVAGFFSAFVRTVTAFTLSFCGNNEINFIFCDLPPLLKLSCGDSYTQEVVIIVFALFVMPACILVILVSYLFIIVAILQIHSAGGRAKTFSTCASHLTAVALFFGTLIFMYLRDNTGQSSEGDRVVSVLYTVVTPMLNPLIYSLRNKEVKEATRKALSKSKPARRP
Method: The human olfactory receptor gene was obtained by cloning from Human Genomic DNA: Female (Promega) by PCR method based on the sequence information registered in GenBank. The 20 N-terminal amino acid residues of bovine rhodopsin were incorporated into the pME18S vector, and the obtained human olfactory receptor gene was incorporated downstream thereof to obtain a human olfactory receptor gene expression vector.
In 10 µL of Opti-MEM I (gibco), 0.05 µg of human olfactory receptor gene expression vector, 0.01 µg of RTP1S vector, 0.01 µg firefly luciferase vector pGL4.29 (Promega) containing cAMP response element promoter, and 0.005 µg of Renilla luciferase vector pGL4.74 (Promega) containing thymidine kinase promoter were dissolved to prepare a gene solution (for one well). HEK293T cells were seeded at 100 µL each in a 96-well plate (Biocoat, Coming) at the number of cells reaching confluence after 24 hours, and a gene solution was added to each well by the lipofection method according to the usage of Lipofectamine 3000 to introduce genes into the cells, and the cells were cultured at 37° C. in a 5% carbon dioxide atmosphere for 24 hours.
After removing the culture medium, the resultant was prepared with CD293 (gibco) medium ([…] added) so as to have a concentration for measuring the aroma substance to be tested, 50 µL of which was added each and stimulated for 3 hours, and then luciferase activity was measured according to the method of using the Dual-Luciferase Reporter Assay System (Promega). The response intensity of the olfactory receptor polypeptide was expressed as a Fold Increase value obtained by dividing the luciferase activity produced by stimulating the aroma substance by the luciferase activity produced in the test system containing no aroma substance.
p-Cresol at 100 µM was mixed with various concentrations of 1-oxacycloheptadecan-7-en-2-one, 1-oxacycloheptadecan-8-en-2-one, isoambrettolide, pentalide, muscone, civetone, 8-2-decenolactone, cinnamic aldehyde, […], sclareolide, and ethyl maltol, and receptor responses were measured in cells expressing OR9Q2. The ratio of the Fold Increase value in the test in which each compound was mixed was calculated, where the Fold Increase value in the test in none of these compounds was mixed was set to 100. FIGS. 1 to 11 present the results.

[3] = Sensory evaluation of p-cresol odor masking in p-cresol-containing citrus-flavored confectionery (tablet); settings: for p-Cresol Odor Intensity: tablet with 200 ppb p-cresol, average score of 6 panelists, scale 0-4
Method: Lemon cold-pressed oil was added to the tablet having the composition presented in Table A at a concentration of 1 % by mass, and medium chain fatty acid triglycerides (MCT) was used to adjust p-cresol to a concentration of 0.1%, which was further added so as to reach 200 ppb in the citrus flavored confectionery. To this p-cresol-containing citrus-flavored confectionery, 1-oxacycloheptadecan-7-en-2-one was added at the concentrations presented in Table 12, and then tableting was performed to confirm the p-cresol odor intensity (masking effect) and the influence on the citrus flavor of each sample.
Six skilled panelists were selected to perform the same sensory evaluation as in Example 1. The results are as in Table 12, presenting the average score of the evaluation results for each panelist.

[4] = citrus-flavored confectionery (tablet) with 200 ppb p-cresol

Row | Structure (SMILES) | p-Cresol Odor Intensity ([1]; 0.01 ppt added) | p-Cresol Odor Intensity ([1]; 0.1 ppt added) | p-Cresol Odor Intensity ([1]; 1 ppb added) | p-Cresol Odor Intensity ([1]; 1 ppt added) | p-Cresol Odor Intensity ([1]; 10 ppb added) | p-Cresol Odor Intensity ([1]; 10 ppt added) | p-Cresol Odor Intensity ([1]; 100 ppb added) | p-Cresol Odor Intensity ([1]; 100 ppt added) | concentration at which the compound masks the p-cresol odor and does not affect the citrus flavor, lower limit [1] | concentration at which the compound masks the p-cresol odor and does not affect the citrus flavor, upper limit [1] | effect of suppressing the response of OR9Q2 to p-cresol [2] | p-Cresol Odor Intensity ([1]; 1 ppm added) | p-Cresol Odor Intensity ([1]; 10 ppm added) | p-Cresol Odor Intensity ([1]; 100 ppm added) | p-Cresol Odor Intensity ([1]; 0.001 ppt added) | also measured
1 | O=C1CCCCCCC/C=C\CCCCCCO1 [Isoambrettolide, isoambrettolide] | 3.7 points | 2.7 points | 1.3 points | 2.4 points | 1.3 points | 2.1 points | 0.9 points | 1.6 points | ≥ 0.1 ppt | ≤ 1 ppb | suppressing the response of OR9Q2 to p-cresol in a concentration-dependent manner |  |  |  |  | p-Cresol Odor Intensity ([3]; 4 ppb added): 2.5 points; p-Cresol Odor Intensity ([3]; 40 ppb added): 1.8 points; p-Cresol Odor Intensity ([3]; 40 ppt added): 3.0 points; p-Cresol Odor Intensity ([3]; 400 ppb added): 1.5 points; p-Cresol Odor Intensity ([3]; 400 ppt added): 2.7 points; concentration at which the compound masks the p-cresol odor and does not affect the citrus flavor, lower limit [3, 4]: ≥ 400 ppt; concentration at which the compound masks the p-cresol odor and does not affect the citrus flavor, upper limit [3, 4]: ≤ 400 ppb
2 | O=C/C=C/c1ccccc1 [Cinnamic Aldehyde, cinnamic aldehyde] |  |  | 2.3 points |  | 2.0 points | 3.9 points | 2.0 points | 2.7 points | ≥ 100 ppt | ≤ 10 ppm | suppressing the response of OR9Q2 to p-cresol in a concentration-dependent manner | 1.7 points | 0.9 points | 0.6 points |  | 
3 | C[C@@H]1CCCCCCCCCCCCC(=O)C1 [Muscone, muscone] | 2.7 points | 2.4 points | 0.9 points | 2.1 points | 0.4 points | 1.9 points | 0.3 points | 1.7 points | ≥ 0.01 ppt | ≤ 1 ppb | suppressing the response of OR9Q2 to p-cresol in a concentration-dependent manner |  |  |  | 3.7 points | 
4 | CCCCCC1CC=CC(=O)O1 (stereo not drawn) [δ-2-Decenolactone, δ-2-decenolactone] |  |  | 2.3 points | 3.9 points | 2.0 points | 2.7 points | 1.6 points | 2.4 points | ≥ 10 ppt | ≤ 100 ppb | suppressing the response of OR9Q2 to p-cresol in a concentration-dependent manner | 1.3 points | 0.7 points |  |  | 
5 | C=C1CC[C@H]2O[C@]2(C)CC[C@@H]2[C@@H]1CC2(C)C [β-caryophyllene Oxide, β-caryophyllene oxide] |  |  | 2.1 points |  | 1.7 points | 3.9 points | 1.6 points | 2.6 points | ≥ 100 ppt | ≤ 1 ppm | suppressing the response of OR9Q2 to p-cresol in a concentration-dependent manner | 1.0 points | 1.0 points | 0.4 points |  | 
6 | O=C1CCCCCCC/C=C\CCCCCCC1 [Civetone, civetone] | 2.7 points | 2.3 points | 1.0 points | 1.9 points | 0.9 points | 1.6 points | 0.4 points | 1.1 points | ≥ 0.01 ppt | ≤ 1 ppb | suppressing the response of OR9Q2 to p-cresol in a concentration-dependent manner |  |  |  | 3.7 points | 

From patent publication US20230180804A1, “FLAVOR COMPOSITION, AND FOOD AND BEVERAGE” (TAKASAGO INTERNATIONAL CORPORATION, priority 2020, published 2023)
